Laboratory results as given in patent publication US12186433B2, “Nanocapsules comprising modified nucleobases and/or nucleosides, hydrogels and oleogels comprising them and uses thereof” (UNIVERSITE D'ANGERS, priority 2017, dated 2025).

Tests used:
[1] = solubilized in Labrafac at 70° C., then cooling
Method: Cyt-C16 was solubilized in Labrafac at 70° C. under magnetic stirring. […] The viscoelastic properties of the oleogels (Cyt-016 from 0.005 to 0.2 mmol·g^−1 of Labrafac, corresponding to Cyt-C16 from 0.25 to 9.95% (w/wLabrafac)), at 25° C. were measured using a Kinexus® rheometer (Malvern Instruments S.A., United Kingdom), with a plate plate geometry (diameter 20 mm, gap: 800 μm). The oleogels were deposited directly on the bottom plate geometry of the rheometer and the top plate geometry was placed in contact with the sample. Oscillatory strain sweeps at 1 Hz constant frequency were performed to determine the linear regime characterized by constant dynamic moduli (elastic: G′ and viscous: G″ moduli), independent of the strain amplitude. In this regime (0.01% constant shear strain), G′ and G′ were measured as a function of angular frequency (0.1 to 10 Hz). In addition, a temperature ramp from 25 to 70° C. (2° C.·min^−1) was performed at 0.01% constant shear strain and 1 Hz constant angular frequency. All these experiments were repeated in triplicate.

[2] = phase-inversion process
Source text: The LNCs formulation was based on a phase-inversion process, from oil-in-water emulsion at low temperature to water-in-oil emulsion at high temperature. The quantities of oil phase (Labrafac), aqueous phase (water and NaCl) and surfactants (Kolliphor and Span 80) for each formulation were precisely weighed. For 25 nm-diameter LNCs, mLabrafac=0.6 g, mKol=1.8 g, mSpan80=0.3 g, mWater=1.3 g and mNaCl=0.054 g; for 50 nm-diameter LNCs, mLabrafac=1.1168 g, mKol=0.9168 g, mSpan80=0.45 g, mWater=1.5168 g and mNaCl=0.054 g; for 75 nm-diameter LNCs, mLabrafac=1.8 g, mKol=1.3 g, mSpan80=0.3 g, mWater=0.6 g and mNaCl=0.054 g; for 100 nm-diameter LNCs, mLabrafac=1.8 g, mKol=0.95 g, mSpan80=0.3 g, mWater=0.95 g and mNaCl=0.054 g.
Then, Kolliphor and the aqueous phase were added and the mixture was heated to 75° C. under magnetic stirring followed by cooling to 45° C. (rate of 5° C.·min^−1). This cycle was repeated three times and during the last temperature decrease at the phase-inversion temperature (about 60° C.), an irreversible shock was induced by dilution with 2 mL of pure water. Afterwards, slow magnetic stirring was applied to the suspension of LNCs at room temperature, and a hydrogel was spontaneously formed. The gelation process was completed after 24 h at 4° C. Prior completed gelation, a part of the formulation was diluted by a factor of 60 (v/v) with pure water.

[3] = system: B6-KPC3 cells; assay: Cellular toxicity, MTS assay, B6-KPC3 cells; format: cell-based, mice; details: B6-KPC3 cell line, Cyt-C16 2.5% (w/wLabrafac) at the LNC surface
Method: B6-KPC3 cells (pancreas tumor from transgenic KPC mice) (gift from the Department of Oncology and Surgical Sciences of Padova, Pr. Vincenzo Bronte), were grown in suspension at 37° C., 90% humidity, 5% CO2 in DMEM medium, completed with decomplemented FBS (10% v/v), penicillin (100 UI·mL^−1), streptomycin ([…]), amphotericin B ([…]), HEPES 10 mM (1% v/v), L-glutamin 2 mM (1% v/v), and β-mercaptoethanol 20 μM (1% v/v). The cells (3.5·10^3 cells/well in 200-μL medium) were then plated on a 96-well cell culture dish and left to grow for 48 h at 37° C. The cytotoxicitiy of diluted LNCs (diameter 50 or 100 nm), non-loaded or loaded with Cyt-C16 2.5% (w/wLabrafac), in cell culture medium, was determined. Fresh cell culture medium was used as controls. […] The number of living cells was determined using a MTS (3-(4,5-dimethylthiazol-2-yl)-5-(3-carboxymethoxyphenyl)-2-(4-sulfophenyl)-2H-tetrazolium salt) assay (colorimetric assay based on the conversion of a tetrazolium salt into formazan). Formazan absorbance was measured at 492 nm and 750 nm, directly from well plates using a spectrophotometer Multiscan Ascent® MP reader (Thermo Scientific, Courtaboeuf, France), after exposition to MTS (20 μL per well) for 2.5 h at 37° C. The percentage of cell viability was calculated according to the following equation: […]

[4] = Cyt-C16 concentration in the hydrogels of LNCs by LC-MS/MS; format: physicochemical; details: LC-MS/MS recovery in hydrogels
Method: The Cyt-C16 concentrations in the hydrogels of LNCs were determined using a LC-MS/MS apparatus: Alliance® 295 system (Waters, Saint-Quentin-en-Yvelines, France) with a Zorbax—Eclipse XDB-C18 column 4.6×150 mm, 3.5 μm, (Agilent Technologies, Santa Clara, United States). The temperature was fixed to 25° C. The mobile phase consisted of methanol with formic acid 0.1% (v/v), at a flow rate of 0.8 mL·min^−1. The injection volume was 10 μL. The total HPLC effluent was directed into a Quattro Micro® triple quadrupole mass spectrometer (Waters Saint-Quentin-en-Yvelines, France). Ionization was achieved using turbo ion spray in positive ion mode. The mass spectrometer operated in multiple reactions monitoring (MRM) mode. The […] transitions for Cyt-C16 was 482>112 and 482>350. Cyt-C16 was diluted in methanol at concentration from 1.25 to 200 ng·mL^−1, in presence of non-loaded LNCs, for the calibration curve. A volume of 50 μL of hydrogels was dissolved with deionized water at 1:4000 (v/v), to obtain a complete dispersion of LNCs. Then, a volume of 100 μL was mixed with 900 μL of methanol. Quantification of Cyt-C16 was achieved after filtration of this solution on 0.22-μm filter.

[5] = system: THP-1 cells; assay: Cellular toxicity, MTS assay, THP-1 cells; format: cell-based, human; details: THP1 cell line, Cyt-C16 2.5% (w/wLabrafac) at the LNC surface
Method: THP-1 cells (human monocyte/macrophage cell line obtained from ATCC, Manassas, VA, USA) were grown in suspension at 37° C., 90% humidity, 5% CO2 in RPMI 1640 medium, completed with decomplemented FBS (10% v/v), penicillin (100 UI·mL^−1), streptomycin ([…]), amphotericin B ([…]), HEPES 10 mM (1% v/v), Pyruvate Sodium 100 mM (1% v/v) and β-mercaptoethanol 20 μM (1% v/v). Cell differentiation was induced in the same medium by adding PMA 200 nM. A 48-h incubation allows the cells to adhere (15·10^3 cells/well in a 96-well cell culture dish). After medium aspiration to eliminate non-adhered cells, cells were washed again with fresh medium.
B6-KPC3 cells (pancreas tumor from transgenic KPC mice) (gift from the Department of Oncology and Surgical Sciences of Padova, Pr. Vincenzo Bronte), were grown in suspension at 37° C., 90% humidity, 5% CO2 in DMEM medium, completed with decomplemented FBS (10% v/v), penicillin (100 UI·mL^−1), streptomycin ([…]), amphotericin B ([…]), HEPES 10 mM (1% v/v), L-glutamin 2 mM (1% v/v), and β-mercaptoethanol 20 μM (1% v/v). […] The cytotoxicitiy of diluted LNCs (diameter 50 or 100 nm), non-loaded or loaded with Cyt-C16 2.5% (w/wLabrafac), in cell culture medium, was determined. […] The percentage of cell viability was calculated according to the following equation: […]

CCCCCCCCCCCCCCCC(=O)Nc1ccn([C@@H]2O[C@H](CO)[C@@H](O)[C@H]2O)c(=O)n1 [Cyt-C16, 4-(N)-palmitoyl cytidine]
oil gelation of Labrafac after cooling [1]: led to the oil gelation after cooling | effect of adding Cyt-C16 to the LNC formulation process [2]: the LNCs suspension turned into a hydrogel | additional cytotoxicity in comparison to native LNCs [3]: does not cause additional cytoxicity | degradation of the molecule by the formulation process [4]: does not degrade | additional cytotoxicity in comparison to native LNCs [5]: does not cause additional cytoxicity
